For 14 compounds, IC50 results are on record in patent US10562912B2 (C&C Research Laboratories, priority 2013, dated 2020).

Assay type in all cases: cell-based
Experiment [1] has as its system LNCaP. Briefly: Cell growth inhibition assay, prostate cancer cell line LNCaP (medium with 10 ng/mL IL-6). The following applies: Homo sapiens, medium supplemented with 10 ng/mL of IL-6, 10,000 cells/well.
For experiment [2], the target named is T1, STAT3 (Homo sapiens, UniProt P40763).
T1 construct: plasmid pSTAT3-TA-luc), which contains a stably operating STAT3 promoter; endogenous in cells
T1 sequence (P40763 whole entry): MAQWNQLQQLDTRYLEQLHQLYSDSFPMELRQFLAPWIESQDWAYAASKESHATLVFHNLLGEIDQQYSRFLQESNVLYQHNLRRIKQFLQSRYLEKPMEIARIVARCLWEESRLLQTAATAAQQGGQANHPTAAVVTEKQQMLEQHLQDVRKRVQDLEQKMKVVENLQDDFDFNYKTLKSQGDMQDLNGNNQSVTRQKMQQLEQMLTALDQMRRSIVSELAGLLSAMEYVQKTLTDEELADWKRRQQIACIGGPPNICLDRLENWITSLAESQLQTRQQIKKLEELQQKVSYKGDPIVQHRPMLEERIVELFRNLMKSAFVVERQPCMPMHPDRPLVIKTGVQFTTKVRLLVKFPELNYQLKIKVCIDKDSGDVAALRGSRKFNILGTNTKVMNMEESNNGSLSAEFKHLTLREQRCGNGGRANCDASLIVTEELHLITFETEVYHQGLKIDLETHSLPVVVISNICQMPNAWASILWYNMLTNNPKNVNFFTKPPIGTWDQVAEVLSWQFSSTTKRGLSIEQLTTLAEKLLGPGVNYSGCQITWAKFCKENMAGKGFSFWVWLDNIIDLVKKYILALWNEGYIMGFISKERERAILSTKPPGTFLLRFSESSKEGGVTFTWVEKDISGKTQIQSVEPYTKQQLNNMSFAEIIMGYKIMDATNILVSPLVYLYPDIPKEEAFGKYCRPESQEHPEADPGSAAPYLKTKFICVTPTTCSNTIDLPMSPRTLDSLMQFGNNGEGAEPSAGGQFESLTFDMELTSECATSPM
In words: STAT3 reporter gene assay (luciferase), LNCaP stable cell line (pSTAT3-TA-luc), IL-6 stimulation. In outline:
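LNCaP cells stably carrying pSTAT3-TA-luc, in RPMI1640 with 3% DCC-FBS, were treated with compound and then stimulated with 10 ng/mL IL-6 for 24–48 h at 37 °C. Luciferase activity was measured in lysates. A parallel plate measured viability by CellTiter-Glo, with stimulated 0.1% DMSO wells as the positive control.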
On the technique in general: Reporter assays use an easily measured gene product as a stand-in for the process of interest.

The test system of experiment [3] is DU-145. Briefly: Cell growth inhibition assay, prostate cancer cell line DU-145. The conditions noted are these: Homo sapiens, DU-145 prostate cancer cell line. In outline: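 Readout was CellTiter-Glo luminescence after 72–96 h of compound exposure at 37 °C, 5% CO2. Plating density was 3,000 cells/well for DU-145 and HCT116 and 5,000 cells/well for SW626. Controls were 0.1% DMSO wells and medium-only wells.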

For experiment [4], the system named is HEL92.1.7. In words: Cell growth inhibition assay, blood cancer cell line HEL92.1.7. The conditions noted are these: Homo sapiens, HEL 92.1.7, HEL92.1.7 blood cancer cell line. The method in brief: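 Cells were seeded at 3,000/well (HCT116, DU-145) or 5,000/well (SW626 and the others) and exposed to serial compound dilutions for 72 to 96 h at 37 °C under 5% CO2. Viability was read as CellTiter-Glo luminescence against 0.1% DMSO and cell-free wells.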

In experiment [5] the test system is U266. Briefly: Cell growth inhibition assay, blood cancer cell line U266. The conditions noted are these: Homo sapiens, U-266 blood cancer cell line. The protocol:
The inhibitory effects of the compounds of the present invention against the growth of cancer cells were evaluated as shown below. The cancer cell lines including stomach cancer cell line (AGS), breast cancer cell lines (MDA-MB-231, MDA-MB-468, and BT-549), prostate cancer cell lines (LNCaP and DU-145), colon cancer cell line (HCT116), ovarian cancer cell line (SW626), liver cancer cell line (Hep3B), kidney cancer cell line (ACHN), lung cancer cell line (NCI-H23) and blood cancer cell lines (HEL92.1.7 and U266) were cultured under the protocol provided by each supplier. A medium supplemented with 10 ng/mL of IL-6 was used for LNCaP, a prostate cancer cell line, when treated with a drug. Each type of cells to be used in experiments were sub-cultured in a 96-well plate by counting the exact number of cells using Tali™ Image-based Cytometer (Life Technologies). In a 96-well plate, AGS, HCT116, and DU-145 were employed with 3,000 cells/well; NCI-H23, SW626, Hep3B, ACHN, BT-549, MDA-MB-231, HEL92.1.7, and U266 were employed with 5,000 cells/well; and LNCaP and MDA-MB-468 were employed with 10,000 cells/well. The cells were treated with the compounds listed in Examples which were diluted in various concentrations. Upon completion of the compounds treatment, AGS, HCT116, SW626, DU145, NCI-H23, Hep3B, ACHN, BT-549, LNCaP, HEL92.1.7, and U266 cells were cultured at 37° C. under 5% CO2 for from 72 to 96 hours, and MDA-MB-231 and MDA-MB-468 cells were cultured at 37° C. in air for from 72 to 96 hours. Subsequently, the cells were observed under microscope and drug precipitation and particular findings were investigated and recorded. And then, the 96-well plate was placed at room temperature for 30 minutes, added with 20 μL/well of CellTiter-Glo solution (Cat No. G7573, Promega) and shaken for 10 minutes, followed by being subjected to the measurement using PHERAstar™ microplate reader (BMG LABTECH) according to the supplier's general luminometer protocol. Wells where only culture liquid added without cell plating were used as a negative control, whereas wells where culture liquid containing 0.1% DMSO instead of the compounds listed in Examples were used as a positive control.

For `COc1cc(OC(F)(F)F)cc(C(C)(C)c2cc(Br)cc(NC(=O)c3cc4cc(NS(C)(=O)=O)cnc4s3)c2)c1` [Example 56, N-(3-bromo-5-(2-(3-methoxy-5-(trifluoromethoxy)phenyl)propan-2-yl)phenyl)-5-(methylsulfonamido)thieno[2,3-b]pyridine-2-carboxamide], the 50% inhibitory concentration (IC50) in experiment [1] turned out to be 0.25 µM; in experiment [2], 0.072 µM; in experiment [3], 0.069 µM; in experiment [4], 0.3 µM; in experiment [5], 0.43 µM.

Regarding `COc1cc(OC(F)(F)F)cc(C(C)(C)c2cc(Cl)cc(NC(=O)c3cc4cc(NS(C)(=O)=O)cnc4s3)c2)c1` [Example 57, N-(3-chloro-5-(2-(3-methoxy-5-(trifluoromethoxy)phenyl)propan-2-yl)phenyl)-5-(methylsulfonamido)thieno[2,3-b]pyridine-2-carboxamide], the IC50 in experiment [1] is 0.16 µM; in experiment [2] it was 0.067 µM; in experiment [3] it was 0.047 µM; in experiment [4] it was 0.18 µM; in experiment [5], 0.33 µM.

Take `CCOc1cc(OC(F)(F)F)cc(C(C)(C)c2cc(Cl)cc(NC(=O)c3cc4cc(NS(C)(=O)=O)ccc4s3)c2)c1` [Example 58, N-(3-chloro-5-(2-(3-ethoxy-5-(trifluoromethoxy)phenyl)propan-2-yl)phenyl)-5-(methylsulfonamido)benzo[b]thiophene-2-carboxamide]: the IC50 in experiment [1] was 0.032 µM; in experiment [2], 0.007 µM; in experiment [3] it was 0.006 µM; in experiment [4], 0.074 µM; in experiment [5] it was 0.005 µM.

Regarding `CCOc1cc(OC(F)(F)F)cc(C(C)(C)c2cc(Cl)cc(NC(=O)c3cc4ccc(NS(C)(=O)=O)cc4[nH]3)c2)c1` [Example 59, N-(3-chloro-5-(2-(3-ethoxy-5-(trifluoromethoxy)phenyl)propan-2-yl)phenyl)-6-(methylsulfonamido)-1H-indole-2-carboxamide], the IC50 was found to be 0.12 µM in experiment [1]; 0.021 µM in experiment [2]; 0.039 µM in experiment [3]; 0.42 µM in experiment [4]; 0.16 µM in experiment [5].

With `CCOc1cc(OC(F)(F)F)cc(C(C)(C)c2cc(Br)cc(NC(=O)c3cc4cc(NS(C)(=O)=O)ncc4s3)c2)c1` [Example 61, N-(3-bromo-5-(2-(3-ethoxy-5-(trifluoromethoxy)phenyl)propan-2-yl)phenyl)-5-(methylsulfonamido)thieno[2,3-c]pyridine-2-carboxamide], the IC50 in experiment [1] came out at 0.13 µM; in experiment [2], 0.066 µM; in experiment [3], 0.06 µM; in experiment [4] it was 0.14 µM; in experiment [5] it was 0.22 µM.

Turning to `CC(C)Oc1cc(OC(F)(F)F)cc(C(C)(C)c2cc(Cl)cc(NC(=O)c3cc4cc(NS(C)(=O)=O)cnc4s3)c2)c1` [Example 69, N-(3-chloro-5-(2-(3-isopropoxy-5-(trifluoromethoxy)phenyl)propan-2-yl)phenyl)-5-(methylsulfonamido)thieno[2,3-b]pyridine-2-carboxamide], the IC50 in experiment [1] worked out at 0.058 µM; in experiment [2], 0.052 µM; in experiment [3] it was 0.052 µM; in experiment [4], 0.09 µM; in experiment [5], 0.14 µM.

Consider `CC(C)Oc1cc(OC(F)(F)F)cc(C(C)(C)c2cc(Cl)cc(NC(=O)c3cc4nc(NS(C)(=O)=O)ccc4s3)c2)c1` [Example 70, N-(3-chloro-5-(2-(3-isopropoxy-5-(trifluoromethoxy)phenyl)propan-2-yl)phenyl)-5-(methylsulfonamido)thieno[3,2-b]pyridine-2-carboxamide], for which the half-inhibitory concentration (IC50) worked out at 0.29 µM in experiment [1]; 0.068 µM in experiment [2]; 0.12 µM in experiment [3]; 0.36 µM in experiment [4]; 0.46 µM in experiment [5].

As to `CC(C)Oc1cc(OC(F)(F)F)cc(C(C)(C)c2cc(Cl)cc(NC(=O)c3cc4cc(NS(C)(=O)=O)ncc4s3)c2)c1` [Example 71, N-(3-chloro-5-(2-(3-isopropoxy-5-(trifluoromethoxy)phenyl)propan-2-yl)phenyl)-5-(methylsulfonamido)thieno[2,3-c]pyridine-2-carboxamide], the IC50 in experiment [1] came out at 0.091 µM; in experiment [2] it was 0.009 µM; in experiment [3] it was 0.048 µM; in experiment [4], 0.13 µM; in experiment [5] it was 0.17 µM.

Take `CC(C)COc1cc(OC(F)(F)F)cc(C(C)(C)c2cc(Cl)cc(NC(=O)c3cc4cc(NS(C)(=O)=O)ccc4s3)c2)c1` [Example 72, N-(3-chloro-5-(2-(3-isobutoxy-5-(trifluoromethoxy)phenyl)propan-2-yl)phenyl)-5-(methylsulfonamido)benzo[b]thiophene-2-carboxamide]: the IC50 in experiment [1] worked out at 0.034 µM; in experiment [2], 0.021 µM; in experiment [3] it was 0.006 µM; in experiment [4] it was 0.087 µM; in experiment [5] it was 0.1 µM.

Take `CCCOc1cc(OC(F)(F)F)cc(C(C)(C)c2cc(Cl)cc(NC(=O)c3cc4cc(NS(C)(=O)=O)ccc4s3)c2)c1` [Example 73, N-(3-chloro-5-(2-(3-propoxy-5-(trifluoromethoxy)phenyl)propan-2-yl)phenyl)-5-(methylsulfonamido)benzo[b]thiophene-2-carboxamide]: the IC50 was determined as 0.033 µM in experiment [1]; 0.01 µM in experiment [2]; 0.006 µM in experiment [3]; 0.056 µM in experiment [4]; 0.058 µM in experiment [5].

Consider `CC#CCOc1cc(OC(F)(F)F)cc(C(C)(C)c2cc(Cl)cc(NC(=O)c3cc4cc(NS(C)(=O)=O)ccc4s3)c2)c1` [Example 75, N-(3-(2-(3-(but-2-yn-1-yloxy)-5-(trifluoromethoxy)phenyl)propan-2-yl)-5-chlorophenyl)-5-(methylsulfonamido)benzo[b]thiophene-2-carboxamide], for which the IC50 came out at 0.029 µM in experiment [1]; 0.008 µM in experiment [2]; 0.003 µM in experiment [3]; 0.02 µM in experiment [4]; 0.021 µM in experiment [5].

As for `CC(C)(c1cc(Cl)cc(NC(=O)c2cc3cc(NS(C)(=O)=O)ccc3s2)c1)c1cc(OCC#N)cc(OC(F)(F)F)c1` [Example 77, N-(3-chloro-5-(2-(3-(cyanomethoxy)-5-(trifluoromethoxy)phenyl)propan-2-yl)phenyl)-5-(methylsulfonamido)benzo[b]thiophene-2-carboxamide], the IC50 is 0.3 µM in experiment [1]; 0.12 µM in experiment [2]; 0.05 µM in experiment [3]; 0.068 µM in experiment [4]; 0.22 µM in experiment [5].

Regarding `CC(C)(c1cc(Cl)cc(NC(=O)c2cc3cc(NS(C)(=O)=O)ccc3s2)c1)c1cc(OC(F)(F)F)cc(OC(F)(F)C(F)F)c1` [Example 80, N-(3-chloro-5-(2-(3-(1,1,2,2-tetrafluoroethoxy)-5-(trifluoromethoxy)phenyl)propan-2-yl)phenyl)-5-(methylsulfonamido)benzo[b]thiophene-2-carboxamide], the half-inhibitory concentration (IC50) in experiment [1] worked out at 0.068 µM; in experiment [2], 0.016 µM; in experiment [3], 0.01 µM; in experiment [4], 0.057 µM; in experiment [5], 0.063 µM.

As to `CC(C)Oc1cc(OC(F)(F)F)cc(C(C)(C)c2cc(F)cc(NC(=O)c3cc4cc(NS(C)(=O)=O)ccc4s3)c2)c1` [Example 82, N-(3-fluoro-5-(2-(3-isopropoxy-5-(trifluoromethoxy)phenyl)propan-2-yl)phenyl)-5-(methylsulfonamido)benzo[b]thiophene-2-carboxamide], the half-inhibitory concentration (IC50) in experiment [1] is 0.03 µM; in experiment [2] it was 0.024 µM; in experiment [3], 0.008 µM; in experiment [4], 0.048 µM; in experiment [5], 0.045 µM.

For orientation: IC50 means the midpoint of a concentration-inhibition curve. Higher therefore signals weaker potency in that assay.
